Measured values published in patent publication US4272437A, “Antibacterial agents, and 4-thio azetidinone intermediates” (priority 1979, dated 1981).
Converted amounts (≈) assume the structure as drawn. Like-named read-outs stand apart in the source and are kept apart here.

Experiments:
S. aureus A9537 = test: In vivo protection of mice, lethal infection with S. aureus A9537; settings: Staphylococcus aureus, A9537, im, IM, 2 treatments, read-out: PD50
Experimental: Representative compounds of the present invention were also tested in vivo in mice and their PD50 (dose of compound in mg/kg required to protect 50% of the treated mice against an otherwise lethal infection of a micro-organism) values determined with respect to the test organisms shown below.

E. coli A-20341-1 = test: MIC, tube dilution, Escherichia coli A20341-1; assay type: cell-based
Source text: (§1) Representative compounds of the present invention were subjected to in vitro antibiotic screening against a variety of microorganisms.

[1] = system: Klebsiella species A20468; test: MIC, tube dilution, Klebsiella species A20468; assay type: cell-based; settings: Klebsiella species (K. pneumoniae) A20468; overnight 37° C.; read-out: Minimum Inhibitory Concentration (M.I.C.)
Source text: as §1

[2] = system: Staph. aureus (Meth-Res) A-15097; test: MIC, tube dilution, Staphylococcus aureus A15097 (Meth-Res); assay type: cell-based; settings: overnight 37° C.; for MIC: Staphylococcus aureus
Source text: as §1

E. coli A-15119 = test: MIC, tube dilution, Escherichia coli A15119; assay type: cell-based; settings: Escherichia coli, A15119, E. coli A15119; overnight 37° C.; read-out: Minimum Inhibitory Concentration (M.I.C.)
Source text: as §1

[3] = system: Staph. aureus A-9537 and 50% serum; test: MIC, tube dilution, Staph. aureus A9537 + 50% serum; assay type: cell-based, Staphylococcus aureus; settings: Staphylococcus aureus, overnight 37° C., read-out: Minimum Inhibitory Concentration (M.I.C.)
Source text: as §1

Proteus rettgeri A21203 = test: MIC, tube dilution, Proteus rettgeri A21203; assay type: cell-based; settings: Providencia rettgeri, overnight 37° C., read-out: Minimum Inhibitory Concentration (M.I.C.)
Source text: as §1

Staph. aureus A-9537 = test: MIC, tube dilution, Staphylococcus aureus A9537; assay type: cell-based; settings: overnight 37° C., Nutrient Broth; for MIC: Staphylococcus aureus, A9537, Staph. aureus A9537, read-out: Minimum Inhibitory Concentration (M.I.C.)
Source text: as §1

Proteus vulgaris A21559 = test: MIC, tube dilution, Proteus vulgaris A21559; assay type: cell-based; settings: Proteus vulgaris, A21559, Proteus vulgaris A21559; overnight 37° C.; read-out: Minimum Inhibitory Concentration (M.I.C.)
Source text: as §1

Ser. marcescens A-20019 = test: MIC, tube dilution, Serratia marcescens A20019; assay type: cell-based; settings: Serratia marcescens, A20019, Serratia marcescens A20019; overnight 37° C.; read-out: Minimum Inhibitory Concentration (M.I.C.)
Source text: as §1

Pr. mirabilis A-9900 = test: MIC, tube dilution, Proteus mirabilis A9900; assay type: cell-based; settings: Proteus mirabilis, A9900, Proteus mirabilis A9900; overnight 37° C.; read-out: Minimum Inhibitory Concentration (M.I.C.)
Source text: as §1

Str. faecalis A-20688 = test: MIC, tube dilution, Streptococcus faecalis A20688; assay type: cell-based; settings: Enterococcus faecalis, A20688, Str. faecalis A20688; overnight 37° C.; read-out: Minimum Inhibitory Concentration (M.I.C.)
Source text: as §1

Ent. cloacae A-9659 = test: MIC, tube dilution, Enterobacter cloacae A9659; assay type: cell-based; settings: Enterobacter cloacae, A9659, Enterobacter cloacae A9659; overnight 37° C.; read-out: Minimum Inhibitory Concentration (M.I.C.)
Source text: as §1

Str. pneumoniae A-9585 = test: MIC, tube dilution, Streptococcus pneumoniae A9585; assay type: cell-based; settings: overnight 37° C., Nutrient Broth; for MIC: Streptococcus pneumoniae, A9585, Str. pneumoniae A9585, read-out: Minimum Inhibitory Concentration (M.I.C.)
Source text: as §1

Pr. morganii A-15153 = test: MIC, tube dilution, Proteus morganii A15153; assay type: cell-based; settings: Morganella morganii, A15153, Proteus morganii A15153; overnight 37° C.; read-out: Minimum Inhibitory Concentration (M.I.C.)
Source text: as §1

[4] = system: Staph. aureus (Pen-Res) A-9606; test: MIC, tube dilution, Staphylococcus aureus A9606 (Pen-Res); assay type: cell-based; settings: Staphylococcus aureus, overnight 37° C.
Source text: as §1

K. pneumoniae A-15130 = test: MIC, tube dilution, Klebsiella pneumoniae A15130; assay type: cell-based; settings: Klebsiella pneumoniae, A15130, K. pneumoniae A15130; overnight 37° C.; read-out: Minimum Inhibitory Concentration (M.I.C.)
Source text: as §1

Str. pyogenes A-9604 = test: MIC, tube dilution, Streptococcus pyogenes A9604; assay type: cell-based; settings: overnight 37° C., Nutrient Broth; for MIC: Streptococcus pyogenes, A9604, Str. pyogenes A9604, read-out: Minimum Inhibitory Concentration (M.I.C.)
Source text: as §1

Ps. aeruginosa A-9843A = test: MIC, tube dilution, Pseudomonas aeruginosa A9843A; assay type: cell-based; settings: Pseudomonas aeruginosa, A9843A, read-out: Minimum Inhibitory Concentration (M.I.C.), Pseudomonas aeruginosa A9843A; overnight 37° C.
Source text: as §1

Ent. cloacae A-9656 = test: MIC, tube dilution, Enterobacter cloacae A9656; assay type: cell-based; settings: overnight 37° C., read-out: Minimum Inhibitory Concentration (M.I.C.)
Source text: as §1

Pr. vulgaris A-9716 = test: MIC, tube dilution, Proteus vulgaris / Proteus mirabilis A9716; assay type: cell-based, Proteus vulgaris (name changed to Proteus mirabilis); settings: Proteus vulgaris, overnight 37° C.
Source text: as §1

Ps. aeruginosa A-21213 = test: MIC, tube dilution, Pseudomonas aeruginosa A21213; assay type: cell-based; settings: Pseudomonas aeruginosa A21213; overnight 37° C.; read-out: Minimum Inhibitory Concentration (M.I.C.)
Source text: as §1

[5] = Staph. aureus A15097 (Meth-Res), read-out: Minimum Inhibitory Concentration (M.I.C.)
[6] = A21203, Proteus rettgeri A21203
[7] = Staph. aureus A9606 (Pen-Res), read-out: Minimum Inhibitory Concentration (M.I.C.)
[8] = Escherichia coli, A203411; E. coli A20341-1; overnight 37° C.; read-out: Minimum Inhibitory Concentration (M.I.C.)
[9] = read-out: Minimum Inhibitory Concentration (M.I.C.), Staph. aureus A15097 (Meth-Res)
[10] = A9716, read-out: Minimum Inhibitory Concentration (M.I.C.), Proteus vulgaris / Proteus mirabilis A9716
[11] = read-out: Minimum Inhibitory Concentration (M.I.C.), Staph. aureus A9606 (Pen-Res)
[12] = A9716, Proteus vulgaris / Proteus mirabilis A9716, read-out: Minimum Inhibitory Concentration (M.I.C.)
[13] = Enterobacter cloacae, A9656, Enterobacter cloacae A9656

| Structure (SMILES) | MIC [1] [µg/mL] | MIC (E. coli A-15119) [µg/mL] | MIC [3] [µg/mL] | MIC (Proteus rettgeri A21203; [6]) [µg/mL] | MIC (Staph. aureus A-9537) [µg/mL] | MIC (Ser. marcescens A-20019) [µg/mL] | MIC (Pr. mirabilis A-9900) [µg/mL] | MIC (Str. faecalis A-20688) [µg/mL] | MIC (Ent. cloacae A-9659) [µg/mL] | MIC (Str. pneumoniae A-9585) [µg/mL] | MIC (Pr. morganii A-15153) [µg/mL] | MIC [4, 7] [µg/mL] | MIC (K. pneumoniae A-15130) [µg/mL] | MIC (Str. pyogenes A-9604) [µg/mL] | MIC (E. coli A-20341-1; [8]) [µg/mL] | MIC [2, 9] [µg/mL] | MIC (Ps. aeruginosa A-9843A) [µg/mL] | MIC (Ent. cloacae A-9656; Enterobacter cloacae A9656) [µg/mL] | MIC (Ps. aeruginosa A-21213) [µg/mL] | MIC [4, 11] [µg/mL] | also measured |
| --- | --- | --- | --- | --- | --- | --- | --- | --- | --- | --- | --- | --- | --- | --- | --- | --- | --- | --- | --- | --- | --- |
| C[C@@H](O)[C@H]1C(=O)N2C(C(=O)O)=C(COCCN)S[C@H]12 (relative stereo) [Example 66, (1'R,5R, 6S and 1'S,5S,6R) 6-(1'-Hydroxyethyl)-2-(2-aminoethoxymethyl)penem-3-carboxylic Acid (isomer B)] | – | – | – | – | – | – | – | – | – | – | – | – | – | – | – | – | – | – | – | – | ED50 (S. aureus A9537; 1.1 × 10^6 organisms): 0.12 mg/kg |
| NCC1CC1C1=C(C(=O)O)N2C(=O)CC2S1 [Example 79, (1'R,2'S,5S and 1'S,2'R,5S; 1'S,2'R,5R and 1'R,2'S,5S) 2-(trans-2-aminomethyl-1-cyclopropyl)-penem-3-carboxylic acid] | > 63 | 4 (≈ 16.6 µM) | 0.25 | 8 (≈ 33.3 µM) | 0.06 (≈ 0.25 µM) | 8 (≈ 33.3 µM) | 8 (≈ 33.3 µM) | 16 (≈ 66.6 µM) | 32 (≈ 133 µM) | 0.016 (≈ 0.0666 µM) | 16 (≈ 66.6 µM) | 0.5 (≈ 2.08 µM) | 16 (≈ 66.6 µM) | 0.03 (≈ 0.125 µM) | – | – | – | – | – | – | MIC (E. coli A-20341-1; Escherichia coli, A203411, E. coli A20341-1; overnight 37° C.; read-out: Minimum Inhibitory Concentration (M.I.C.)): 16 µg/mL (≈ 66.6 µM); Minimum Inhibitory Concentration (M.I.C.) ([2]; Staph. aureus A15097 (Meth-Res)): 125 µg/mL; MIC [2, 5]: > 63 µg/mL; MIC (Proteus vulgaris A21559): 16 µg/mL (≈ 66.6 µM); ED50 (S. aureus A9537; 8 × 10^5 organisms): 0.8 mg/kg |
| O=C([O-])C1=C(Cc2ccccc2)S[C@@H]2CC(=O)N12.[Na+] [Preparation 21, Sodium 2-Benzylpenem-3-carboxylate] | 125 | 4 | > 63 | – | – | 63 | 1 | 32 | 63 | – | 4 | – | 125 | – | 125 | 32 | 125 | 32 | 125 | 1 | MIC (Pr. vulgaris A-9716; [10]): 2 µg/mL; MIC (Proteus rettgeri A21203; Proteus rettgeri A21203): 4 µg/mL; Minimum Inhibitory Concentration (M.I.C.) (Staph. aureus A-9537; Staph. aureus A9537): .06 µg/mL; Minimum Inhibitory Concentration (M.I.C.) (Str. pneumoniae A-9585; Str. pneumoniae A9585): 2 µg/mL; Minimum Inhibitory Concentration (M.I.C.) (Str. pyogenes A-9604; Str. pyogenes A9604): 8 µg/mL |
| CC(C)(C)CC1=C(C(=O)O)N2C(=O)CC2S1 (centres unmarked) [Preparation 23, 2-(2',2'-Dimethylpropyl)penem-3-carboxylate] | > 125 | 16 (≈ 66.3 µM) | > 63 | 32 (≈ 133 µM) | 0.25 (≈ 1.04 µM) | 125 (≈ 518 µM) | 2 (≈ 8.29 µM) | > 125 | 125 (≈ 518 µM) | 0.25 (≈ 1.04 µM) | 63 (≈ 261 µM) | 32 (≈ 133 µM) | 125 (≈ 518 µM) | 0.25 (≈ 1.04 µM) | > 125 | 125 (≈ 518 µM) | > 125 | > 125 | > 125 | – | MIC (Pr. vulgaris A-9716; [12]): 4 µg/mL (≈ 16.6 µM) |
| CCCCC1=C(C(=O)[O-])N2C(=O)C[C@H]2S1.[Na+] [Preparation 24, Sodium 2-butylpenem-3-carboxylate] | > 125 | 16 | > 63 | – | 0.13 | 32 | 2 | 63 | 63 | 0.25 | 16 | – | 63 | 1 | > 125 | 125 | 125 | 63 | 125 | 4 | MIC (Pr. vulgaris A-9716; [10]): 2 µg/mL; MIC (Proteus rettgeri A21203; Proteus rettgeri A21203): 8 µg/mL |
| CCOP(=O)(CCC1=C(C(=O)O)N2C(=O)CC2S1)OCC (centres unmarked) [Preparation 25, 2'-(2'-Diethylphosphono-1'-ethyl)penem-3-carboxylic Acid] | 4 (≈ 11.9 µM) | 8 (≈ 23.9 µM) | 8 | – | 1 (≈ 2.98 µM) | 63 (≈ 188 µM) | 8 (≈ 23.9 µM) | 125 (≈ 373 µM) | 16 (≈ 47.7 µM) | 125 (≈ 373 µM) | 63 (≈ 188 µM) | – | 125 (≈ 373 µM) | > 125 | 2 (≈ 5.96 µM) | 4 (≈ 11.9 µM) | 125 (≈ 373 µM) | 16 (≈ 47.7 µM) | > 125 | 32 (≈ 95.4 µM) | MIC (Pr. vulgaris A-9716; [10]): 63 µg/mL (≈ 188 µM); MIC (Proteus rettgeri A21203; Proteus rettgeri A21203): 32 µg/mL (≈ 95.4 µM) |
| CSC(SC)C1=C(C(=O)O)N2C(=O)CC2S1 (centres unmarked) [Preparation 26, Sodium 2-(Dimethyldithiomethyl)penem-3-carboxylate] | > 125 | 32 | > 63 | 32 | 4 | 63 | 32 | > 125 | 63 | 2 | 63 | – | > 125 | 4 | > 125 | > 125 | 125 | – | 125 | 125 | MIC (Ent. cloacae A-9656; [13]): 63 µg/mL; MIC (Pr. vulgaris A-9716; [12]): 32 µg/mL |
| O=C(O)C1=C(c2cscn2)SC2CC(=O)N12 (centres unmarked) [Preparation 27, 2-(4'-Thiazolyl)penem-3-carboxylic Acid] | > 125 | 8 (≈ 31.5 µM) | > 63 | 16 (≈ 62.9 µM) | 0.5 (≈ 1.97 µM) | 63 (≈ 248 µM) | 4 (≈ 15.7 µM) | 4 (≈ 15.7 µM) | 125 (≈ 492 µM) | 0.13 (≈ 0.511 µM) | 32 (≈ 126 µM) | 8 (≈ 31.5 µM) | 125 (≈ 492 µM) | 0.25 (≈ 0.983 µM) | 125 (≈ 492 µM) | – | 125 (≈ 492 µM) | – | 125 (≈ 492 µM) | – | MIC [2, 5]: 8 µg/mL (≈ 31.5 µM); MIC (Ent. cloacae A-9656; [13]): 63 µg/mL (≈ 248 µM); MIC (Pr. vulgaris A-9716; [12]): 4 µg/mL (≈ 15.7 µM) |
